Patent US8748426B2, “Inhibitors of diacylglycerol acyl transferase” (Piramal Enterprises Limited, priority 2009, dated 2014)

Biological target: T1, hDGAT1 (Homo sapiens, UniProt O75907)
T1 sequence (O75907 1-488): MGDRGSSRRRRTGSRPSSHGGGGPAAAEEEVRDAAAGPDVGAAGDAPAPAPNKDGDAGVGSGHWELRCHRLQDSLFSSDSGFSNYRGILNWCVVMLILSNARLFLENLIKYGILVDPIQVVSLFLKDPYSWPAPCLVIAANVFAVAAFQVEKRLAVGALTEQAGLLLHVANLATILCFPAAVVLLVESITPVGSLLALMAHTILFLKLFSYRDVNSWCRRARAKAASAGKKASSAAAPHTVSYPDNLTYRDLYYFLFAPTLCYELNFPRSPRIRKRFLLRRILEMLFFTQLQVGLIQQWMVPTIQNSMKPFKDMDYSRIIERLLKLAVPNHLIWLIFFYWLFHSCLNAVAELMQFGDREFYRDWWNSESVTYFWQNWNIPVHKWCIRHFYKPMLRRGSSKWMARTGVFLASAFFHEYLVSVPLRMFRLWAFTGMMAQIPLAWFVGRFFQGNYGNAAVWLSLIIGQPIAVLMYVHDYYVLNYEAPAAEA
Experiment: In-vitro DGAT1 assay (14C oleoyl CoA, hDGAT1 microsomes from Sf9 cells)
Settings: at 1 μM
Description: Sf9 cells were seeded in spinner flasks on day 0 at a cell density of 1×10^6 and infected on day 1 with hDGAT1 baculovirus at a multiplicity of infection (MOI) of 5 and a cell density of 2×10^6. On day 3 (or 66-72 h), cells were harvested and centrifuged at 2500×g for 10 min. Pellet was resuspended in lysis buffer (100 mM sucrose, 50 mM KCl, 40 mM KH2PO4, 30 mM EDTA, pH 7.2) and passed through 21-gauge needle approximately 10 times. […] The supernatant was subjected to centrifugation at 35,000 rpm in a Beckman Ti-45 rotor at 4° C. for 1 h. The resultant pellet containing the microsomes wasere resuspended overnight in 1 mL of lysis buffer and total protein concentration was estimated using Bradford Reagent. Microsomes were aliquoted and stored at −80° C.
Frozen aliquots of hDGAT1 containing microsomes were thawed (5-10 mg/mL total protein) on ice and diluted to a working stock of 1 mg/mL with DGAT Assay Buffer (DAB).
The assay was performed in duplicates in a reaction volume of 100 μL. […] Procedure:
The reaction was started by the addition of 2.5 μL of 1 mg/mL of microsomes (iv) to the mixture and incubated at 37° C. for 10 min. […] The mixture was vortexed and the triglycerides formed were extracted into the organic heptane phase.

**Q.** Which “% Inhibition of hDGAT1” value does the source give for `COC[C@@H](C(=O)O)N1Cc2ccc(-c3ccc(NC(=O)Nc4cccc(C(F)(F)F)c4)cc3)cc2C1=O` [Example 355] here?
**A.** + (10-50% Inhibition)

**Q.** How did the “% Inhibition of hDGAT1” value turn out when `O=C(Nc1ccc(-c2ccc3c(c2)C(=O)N(C24C[C@@H]5C[C@@H](CC(C(=O)O)(C5)C2)C4)C3)cc1)c1ccc(Cl)cc1` [Example 569, (1r,3s,5R,7S)-3-(6-(4-(4-Chlorobenzamido)phenyl)-1-oxoisoindolin-2-yl)adamantane-1-carboxylic acid] was run?
**A.** + (10-50% Inhibition)

Same assay, conditions: read-out: % Inhibition of hDGAT1

**Q.** Which inhibition at 1 µM does the source give for `CC(C)[C@@H](C(=O)O)N1Cc2cc(-c3ccc(NC(=O)c4cccc(F)c4)cc3)ccc2C1=O` [Example 313, (S)-2-(5-(4-(3-Fluorobenzamido)phenyl)-1-oxoisoindolin-2-yl)-3-methylbutanoic acid] here?
**A.** 10 to 50%

**Q.** How did the inhibition at 1 µM turn out when `CCCCCc1ccc(C(=O)Nc2ccc(-c3ccc4c(c3)C(=O)N(C(C)(C)C(=O)O)C4)cc2)cc1` [Example 525, 2-Methyl-2-(1-oxo-6-(4-(4-pentylbenzamido)phenyl)isoindolin-2-yl)propanoic acid] was run?
**A.** 10 to 50%

**Q.** Which inhibition at 1 µM does the source give for `CCc1ccc(C(=O)Nc2ccc(-c3ccc4c(c3)C(=O)N([C@H](C(=O)O)C(C)C)C4)cc2)cc1` [Example 168, (S)-2-(6-(4-(4-Ethylbenzamido)phenyl)-1-oxoisoindolin-2-yl)-3-methylbutanoic acid] here?
**A.** > 50%

**Q.** Which inhibition at 1 µM does the source give for `CC(C)C[C@@H](C(=O)O)N1Cc2ccc(-c3ccc(NC(=O)Nc4cccc(C(F)(F)F)c4)cc3)cc2C1=O` [Example 352, (S)-4-Methyl-2-(1-oxo-6-(4-(3-(3-(trifluoromethyl)phenyl)ureido)phenyl)isoindolin-2-yl)pentanoic acid] here?
**A.** 10 to 50%

**Q.** How did the inhibition at 1 µM turn out when `CC(C)[C@@H](C(=O)O)N1Cc2ccc(-c3ccc(NC(=O)Nc4ccccc4Cl)cn3)cc2C1=O` [Example 394, (S)-2-(6-(5-(3-(2-Chlorophenyl)ureido)pyridin-2-yl)-1-oxoisoindolin-2-yl)-3-methylbutanoic acid] was run?
**A.** > 50%

**Q.** `COc1cccc(NC(=O)Nc2ccc(-c3ccc4c(c3)CN([C@H](C(=O)O)C(C)C)C4=O)cc2)c1` [Example 251, (S)-2-(5-(4-(3-(3-Methoxyphenyl)ureido)phenyl)-1-oxoisoindolin-2-yl)-3-methylbutanoic acid] was tested. Which inhibition at 1 µM did it give?
**A.** > 50%

**Q.** For `CC(C)[C@@H](C(=O)O)N1Cc2cc(-c3ccc(NC(=O)c4ccc(C(F)(F)F)cc4)cc3)ccc2C1=O` [Example 309, (S)-3-Methyl-2-(1-oxo-5-(4-(4-(trifluoromethyl)benzamido)phenyl)isoindolin-2-yl)butanoic acid], which inhibition at 1 µM is on record?
**A.** 10 to 50%

**Q.** How did the inhibition at 1 µM turn out when `CC(C)[C@@H](C(=O)O)N1Cc2ccc(-c3ccc(NC(=O)Cc4ccccc4)cc3)cc2C1=O` [Example 659, (S)-3-Methyl-2-(1-oxo-6-(4-(2-phenylacetamido)phenyl)isoindolin-2-yl)butanoic acid] was run?
**A.** 10 to 50%

**Q.** With `CC(C)[C@@H](C(=O)O)N1Cc2ccc(-c3ccc(NC(=O)Nc4ccc(F)c(F)c4)cc3)cc2C1=O` [Example 32, (S)-2-(6-(4-(3-(3,4-Difluorophenyl)ureido)phenyl)-1-oxoisoindolin-2-yl)-3-methylbutanoic acid] as the molecule, how does the inhibition at 1 µM read?
**A.** 10 to 50%

**Q.** With `O=C(O)CN1Cc2cc(-c3ccc(NC(=O)Nc4cccc(C(F)(F)F)c4)cc3)ccc2C1=O` [Example 364, 2-(1-Oxo-5-(4-(3-(3-(trifluoromethyl)phenyl)ureido)phenyl)isoindolin-2-yl)acetic acid] as the molecule, how does the inhibition at 1 µM read?
**A.** 10 to 50%

**Q.** With `O=C(Nc1ccc(-c2ccc3c(c2)C(=O)N(C2(C(=O)O)CCCC2)C3)cc1)c1ccc(Cl)cc1` [Example 533, 1-(6-(4-(4-Chlorobenzamido)phenyl)-1-oxoisoindolin-2-yl)cyclopentane carboxylic acid] as the molecule, how does the inhibition at 1 µM read?
**A.** > 50%

**Q.** For `CC(C)[C@@H](C(=O)O)N1Cc2ccc(-c3ccc(NS(=O)(=O)C(C)C)cc3)cc2C1=O` [Example 96, (S)-3-Methyl-2-(6-(4-(1-methylethylsulfonamido)phenyl)-1-oxoisoindolin-2-yl)butanoic acid], which inhibition at 1 µM is on record?
**A.** 10 to 50%

**Q.** `CC(C)C[C@@H](C(=O)O)N1Cc2cc(-c3ccc(NC(=O)Nc4cccc(C(F)(F)F)c4)cc3)ccc2C1=O` [Example 388, (S)-4-Methyl-2-(1-oxo-5-(4-(3-(3-(trifluoromethyl)phenyl)ureido)phenyl)isoindolin-2-yl)pentanoic acid] was tested. Which inhibition at 1 µM did it give?
**A.** 10 to 50%

**Q.** For `CC(C)[C@@H](C(=O)O)N1Cc2cc(-c3ccc(NC(=S)Nc4cccc(F)c4)cc3)ccc2C1=O` [Example 259, (S)-2-(5-(4-(3-(3-Fluorophenyl)thioureido)phenyl)-1-oxoisoindolin-2-yl)-3-methyl butanoic acid], which inhibition at 1 µM is on record?
**A.** 10 to 50%

**Q.** With `CC(C)[C@@H](C(=O)O)N1Cc2ccc(-c3ccc(NC(=O)c4nnc(-c5ccccc5)[nH]4)cc3)cc2C1=O` [Example 629, (S)-3-Methyl-2-(1-oxo-6-(4-(5-phenyl-4H-1,2,4-triazole-3-carboxamido)phenyl)isoindolin-2-yl)butanoic acid] as the molecule, how does the inhibition at 1 µM read?
**A.** 10 to 50%

**Q.** For `CC(C)[C@@H](C(=O)O)N1Cc2ccc(-c3ccc(NC(=O)c4ccccc4Cl)cc3)cc2C1=O` [Example 132, (S)-2-(6-(4-(2-Chlorobenzamido)phenyl)-1-oxoisoindolin-2-yl)-3-methyl butanoic acid], which inhibition at 1 µM is on record?
**A.** 10 to 50%

**Q.** Which inhibition at 1 µM does the source give for `CCOc1cc(OCC)cc(C(=O)Nc2ccc(-c3ccc4c(c3)C(=O)N([C@H](C(=O)O)C(C)C)C4)cc2)c1` [Example 146, (S)-2-(6-(4-(3,5-Diethoxybenzamido)phenyl)-1-oxoisoindolin-2-yl)-3-methyl butanoic acid] here?
**A.** > 50%

**Q.** With `CC(C)[C@@H](C(=O)O)N1Cc2ccc(-c3ccc(NC(=O)c4ccc(C(C)(C)C)cc4)cc3C(F)(F)F)cc2C1=O` [Example 424, (S)-2-(6-(4-(4-tert-Butylbenzamido)-2-(trifluoromethyl)phenyl)-1-oxoisoindolin-2-yl)-3-methylbutanoic acid] as the molecule, how does the inhibition at 1 µM read?
**A.** 10 to 50%

**Q.** With `CC(C)[C@@H](C(=O)O)N1Cc2ccc(-c3ccc(NC(=O)Nc4ccc(Oc5ccccc5)cc4)cc3)cc2C1=O` [Example 50, (S)-3-Methyl-2-(1-oxo-6-(4-(3-(4-phenoxyphenyl)ureido)phenyl)isoindolin-2-yl)butanoic acid] as the molecule, how does the inhibition at 1 µM read?
**A.** > 50%

**Q.** For `CC(C)[C@@H](C(=O)O)N1Cc2ccc(-c3ccc(NC(=O)c4ccc(-c5cncnc5)cc4)cc3)cc2C1=O` [Example 653, (S)-3-Methyl-2-(1-oxo-6-(4-(4-(pyrimidin-5-yl)benzamido)phenyl)isoindolin-2-yl)butanoic acid], which inhibition at 1 µM is on record?
**A.** 10 to 50%

**Q.** With `O=C(Nc1ccc(-c2ccc3c(c2)C(=O)N([C@H](C(=O)O)c2ccccc2)C3)cc1)Nc1cccc(C(F)(F)F)c1` [Example 346, (S)-2-(1-Oxo-6-(4-(3-(3-(trifluoromethyl)phenyl)ureido)phenyl)isoindolin-2-yl)-2-phenylacetic acid] as the molecule, how does the inhibition at 1 µM read?
**A.** 10 to 50%

**Q.** With `CC(C)[C@@H](C(=O)O)N1Cc2ccc(-c3ccc(NC(=O)c4ccc(F)cc4F)cc3)cc2C1=O` [Example 110, (S)-2-(6-(4-(2,4-Difluorobenzamido)phenyl)-1-oxoisoindolin-2-yl)-3-methyl butanoic acid] as the molecule, how does the inhibition at 1 µM read?
**A.** > 50%

**Q.** With `CC(C)[C@@H](C(=O)O)N1Cc2ccc(-c3ccc(NC(=O)c4ccc(-c5cnco5)cc4)cc3)cc2C1=O` [Example 622, (S)-3-Methyl-2-(6-(4-(4-(oxazol-5-yl)benzamido)phenyl)-1-oxoisoindolin-2-yl)butanoic acid] as the molecule, how does the inhibition at 1 µM read?
**A.** > 50%

**Q.** With `CC(C)[C@@H](C(=O)O)N1Cc2cc(-c3ccc(NC(=O)NCc4ccccc4)cc3)ccc2C1=O` [Example 233, (S)-2-(5-(4-(3-Benzylureido)phenyl)-1-oxoisoindolin-2-yl)-3-methylbutanoic acid] as the molecule, how does the inhibition at 1 µM read?
**A.** 10 to 50%

**Q.** For `CC(C)[C@@H](C(=O)O)N1Cc2ccc(-c3ccc(NC(=O)c4cc(-c5ccc(C(F)(F)F)cc5)no4)cc3)cc2C1=O` [Example 620, (S)-3-Methyl-2-(1-oxo-6-(4-(3-(4-(trifluoromethyl)phenyl)isoxazole-5-carboxamido)phenyl)isoindolin-2-yl)butanoic acid], which inhibition at 1 µM is on record?
**A.** > 50%

**Q.** With `Cc1cccc(NC(=O)Nc2ccc(-c3ccc4c(c3)C(=O)N([C@H](C(=O)O)C(C)C)C4)cc2)c1` [Example 22, (S)-3-Methyl-2-(1-oxo-6-(4-(3-m-tolylureido)phenyl)isoindolin-2-yl)butanoic acid] as the molecule, how does the inhibition at 1 µM read?
**A.** 10 to 50%

**Q.** With `O=C(Nc1ccc(-c2ccc3c(c2)C(=O)N(C2CCCC(C(=O)O)C2)C3)cc1)c1ccc(Cl)cc1` (centres unmarked) [Example 549, 3-(6-(4-(4-Chlorobenzamido)phenyl)-1-oxoisoindolin-2-yl)cyclohexane carboxylic acid] as the molecule, how does the inhibition at 1 µM read?
**A.** > 50%

**Q.** `CC(C)[C@@H](C(=O)O)N1Cc2ccc(-c3ccc(NC(=O)c4cccnc4)cc3)cc2C1=O` [Example 207, (S)-3-Methyl-2-(6-(4-(nicotinamido)phenyl)-1-oxoisoindolin-2-yl)butanoic acid] was tested. Which inhibition at 1 µM did it give?
**A.** > 50%

**Q.** How did the inhibition at 1 µM turn out when `CCC(C#N)(CC)c1ccc(C(=O)Nc2ccc(-c3ccc4c(c3)C(=O)N([C@H](C(=O)O)C(C)C)C4)cc2)cc1` [Example 633, (S)-2-(6-(4-(4-(3-Cyanopentan-3-yl)benzamido)phenyl)-1-oxoisoindolin-2-yl)-3-methylbutanoic acid] was run?
**A.** > 50%

**Q.** How did the inhibition at 1 µM turn out when `CC(C)[C@@H](C(=O)O)N1Cc2ccc(-c3ccc(NC(=O)Nc4cccc(F)c4)cc3)cc2C1=O` [Example 14, (S)-2-(6-(4-(3-(3-Fluorophenyl)ureido)phenyl)-1-oxoisoindolin-2-yl)-3-methyl butanoic acid] was run?
**A.** 10 to 50%
